Assays:
primary microglia = assay: Intracellular Aβ degradation by primary microglia; format: cell-based, murine
Source text: FIG. 5 illustrates graphs showing RXR agonists stimulate Aβ degradation.
Given the ability of RXR activation to drive LXR target gene expression, we predicted that agonist treatment should promote the proteolytic degradation of Aβ by microglia. […] Aβ uptake was unaffected by either drug treatment.

microglia = assay: Inhibition of RXR mediated intracellular Aβ degradation by PPARγ or LXR inhibitors, microglia; format: cell-based; conditions: inhibitor pretreatment 1.5 hrs, Bexarotene 24 hours, 2 ug/mL soluble Aβ 18 hours
Source text: (§1) FIG. 14 illustrates graphs showing RXR mediated intracellular Aβ degradation is prevented by inhibiting PPARγ or LXR.
(§2) To determine which heterodimer partners are involved in RXR activation driven Aβ intracellular degradation, we inhibited PPARγ and LXR by competitive inhibitors, TO and 22-s-Hydroxycholesterol, respectively. Aβ degradation mediated by either microglia (A) or astrocytes (B) is inhibited with either inhibitor to PPAR or LXR. Additionally, a co-treatment with both inhibitors reduces Aβ degradation further (FIG. 14).

astrocytes = assay: Inhibition of RXR mediated intracellular Aβ degradation by PPARγ or LXR inhibitors, astrocytes; format: cell-based; conditions: inhibitor pretreatment 1.5 hrs, Bexarotene 24 hours, 2 ug/mL soluble Aβ 18 hours
Source text: as §1, §2

ApoE knock out microglia = assay: Intracellular Aβ degradation in ApoE knock out microglia; format: cell-based, murine; conditions: without ApoE
[1] = system: ApoE knock out astrocytes; assay: Intracellular Aβ degradation in ApoE knock out astrocytes; format: cell-based, murine; conditions: without ApoE
[2] = extended periods in humans; cited from earlier work
[3] = therapeutic doses, FDA alert May 21, 2007; cited from earlier work

In the case of `CC1=C(/C=C/C(C)=C\C=C\C(C)=C\C(=O)O)C(C)(C)CCC1` [9cisRA], the Aβ uptake (primary microglia) is reported as “unaffected” and the “intracellular Aβ levels” value (primary microglia; drug 24 hours then 18 hours with 2 μg/mL soluble Aβ) is reported as “dose-dependent reduction”.

With `CC(C)CC[C@H](O)[C@@H](C)[C@H]1CC[C@H]2[C@@H]3CC=C4C[C@@H](O)CC[C@]4(C)[C@H]3CC[C@]12C` [22-s-Hydroxycholesterol] the “Bexarotene driven intracellular Aβ degradation” value (microglia) was “inhibited” and the “Bexarotene driven intracellular Aβ degradation” value (astrocytes) was “inhibited”.

In the case of `C=C(c1ccc(C(=O)O)cc1)c1cc2c(cc1C)C(C)(C)CCC2(C)C` [Bexarotene], the “intracellular Aβ degradation” value (ApoE knock out microglia) is listed as “no effect”, the “intracellular Aβ degradation” value [1] is listed as “no effect” and the clinical safety profile [2] is listed as “good safety profile”.

For `CN(CCOc1ccc(CC2SC(=O)NC2=O)cc1)c1ccccn1` (stereo not drawn) [rosiglitazone, 5-[4-[2-(N-methyl-N-(2-pyridyl)amino]ethoxy]benzyl]thiazolidine-2,4-dione], the “risk of death from all cardiovascular diseases” value [3] is listed as “even higher risk of death from all cardiovascular diseases” and the “risk of heart attack” value [3] is listed as “significantly increased risk of heart attack”.
